In publication PMC9228567 (2022) one finds KD data, which are given here for one compound.

Molecules are shown by their SMILES.

The test deals with cy5-TTRS (WT Tte-PreQ1 riboswitch aptamer) (RNA, riboswitch) CUCACCUGGGUCGCAGUAACCCCAGUUAACAAAACAAGGGAGGUAAUUUU
The experiment in a line: microscale thermophoresis. The note with it: 100 mM KCl, 1 mM MgCl2; 50 mM Tris pH 7.5, RT, DMSO; apparent, single-site fit.

As to `NCc1c[nH]c2nc(N)[nH]c(=O)c12`, the KD turned out to be 11.7 ± 0.35 nM.
